{"source": "paper PMC9841298", "about": "(Clinical and Translational Science, 2022)", "key": {"[1]": {"experiment": "PKPlus two-compartmental PK model fitted to reference product plasma data", "design": "species or system human"}, "[2]": {"conditions": "ref website drug bank, cited from earlier work"}, "[3]": {"conditions": "fasting, two-compartmental model, from reference product 2.0 mg data of ref 13"}}, "note": "Like-named read-outs stand apart in the source and are kept apart here.", "data": [{"molecule": "O=C(O)C[C@H](O)C[C@H](O)/C=C/c1c(C2CC2)nc2ccccc2c1-c1ccc(F)cc1", "note": "[pitavastatin calcium]", "values": [{"measurement": "distribution coefficient from the peripheral to central compartment (k21)", "setting": "[1]; [3]", "result": 0.086, "unit": "h⁻¹"}, {"measurement": "distribution constant from the central to the peripheral compartment (k12)", "setting": "[1]; [3]", "result": 0.252, "unit": "h⁻¹"}, {"measurement": "Vd", "setting": "[1]; human, plasma, oral, 2 mg", "result": 43.2, "unit": "L"}, {"measurement": "clearance", "setting": "[1]; human, plasma, oral, 2 mg", "result": 343, "unit": "mL/min"}, {"measurement": "Log P", "setting": "[2]; model input", "result": 3.75}, {"measurement": "pKa", "setting": "[2]; model input", "result": 4.86}, {"measurement": "Solubility", "setting": "[2]; pH 4.68", "result": 65.2, "unit": "µg/mL"}, {"measurement": "Solubility", "setting": "[2]; water", "result": 3.94, "unit": "µg/mL"}]}]}
